Experimental data: patent US7306804B2 (priority 1998, dated 2007)
Like-named read-outs stand apart in the source and are kept apart here.

Experiments:
[1] = tested on: PBMCs from control and HIV-1 infected chimpanzees; format: cell-based, chimpanzee
[2] = tested on: PBMCs from normal and HIV-positive individuals; format: cell-based, human; settings: for number of HIV+ individuals with positive proliferative responses: 17 HIV+ individuals tested
[3] = tested on: anti-peptide antibodies in serum; format: binding, chimpanzee; design: key: +, Positive (Titer > 1:100); −, Negative (Titer < 1:100)
[4] = tested on: anti-peptide antibodies in serum; format: binding, human; design: key to Anti-peptide antibody response: +, Positive (titer above control); −, Negative (titer below control)

## FLGFLGAAGSTMGAASLTLTVQARQ [Peptide 121]
[1]; chimpanzee 40, control normal
  T-cell proliferative response: − (−, Negative (SI < 2.0))
[1]; chimpanzee 62, HIV-infected
  T-cell proliferative response: + (+, Positive (Stimulation Index [SI] > 2.0))
[1]; chimpanzee 69, HIV-infected
  T-cell proliferative response: + (+, Positive (Stimulation Index [SI] > 2.0))
[1]; chimpanzee 73, control normal
  T-cell proliferative response: − (−, Negative (SI < 2.0))
[1]; chimpanzee 80, HIV-infected
  T-cell proliferative response: + (+, Positive (Stimulation Index [SI] > 2.0))
[1]; chimpanzee 99, HIV-infected
  T-cell proliferative response: − (−, Negative (SI < 2.0))
[1]; chimpanzee 100, HIV-infected
  T-cell proliferative response: + (+, Positive (Stimulation Index [SI] > 2.0))
[1]; chimpanzee 139, HIV-infected
  T-cell proliferative response: − (−, Negative (SI < 2.0))
[1]; chimpanzee 175, HIV-infected
  T-cell proliferative response: + (+, Positive (Stimulation Index [SI] > 2.0))
[1]; chimpanzee 247, HIV-infected
  T-cell proliferative response: − (−, Negative (SI < 2.0))
[1]; chimpanzee 310, HIV-infected
  T-cell proliferative response: − (−, Negative (SI < 2.0))
[1]; nine HIV-infected chimpanzees tested
  number of HIV-infected chimpanzees with positive proliferative responses (SI>2.0): five
[2]
  number of HIV+ individuals with positive proliferative responses: five
[2]; HIV-positive patient MSf
  T-cell proliferative response: − (−, Negative (SI < 2.0))
[2]; HIV-positive patient MSm
  T-cell proliferative response: − (−, Negative (SI < 2.0))
[2]; HIV-positive patient eight
  T-cell proliferative response: − (−, Negative (SI < 2.0))
[2]; HIV-positive patient eleven
  T-cell proliferative response: − (−, Negative (SI < 2.0))
[2]; HIV-positive patient fifteen
  T-cell proliferative response: + (+, Positive (Stimulation Index [SI] > 2.0))
[2]; HIV-positive patient five
  T-cell proliferative response: − (−, Negative (SI < 2.0))
[2]; HIV-positive patient four
  T-cell proliferative response: − (−, Negative (SI < 2.0))
[2]; HIV-positive patient fourteen
  T-cell proliferative response: + (+, Positive (Stimulation Index [SI] > 2.0))
[2]; HIV-positive patient nine
  T-cell proliferative response: − (−, Negative (SI < 2.0))
[2]; HIV-positive patient one
  T-cell proliferative response: − (−, Negative (SI < 2.0))
[2]; HIV-positive patient seven
  T-cell proliferative response: − (−, Negative (SI < 2.0))
[2]; HIV-positive patient six
  T-cell proliferative response: + (+, Positive (Stimulation Index [SI] > 2.0))
[2]; HIV-positive patient ten
  T-cell proliferative response: + (+, Positive (Stimulation Index [SI] > 2.0))
[2]; HIV-positive patient thirteen
  T-cell proliferative response: − (−, Negative (SI < 2.0))
[2]; HIV-positive patient three
  T-cell proliferative response: + (+, Positive (Stimulation Index [SI] > 2.0))
[2]; HIV-positive patient twelve
  T-cell proliferative response: − (−, Negative (SI < 2.0))
[2]; HIV-positive patient two
  T-cell proliferative response: − (−, Negative (SI < 2.0))
[2]; Normal-1 (HIV-seronegative)
  T-cell proliferative response: − (−, Negative (SI < 2.0))
[2]; Normal-2 (HIV-seronegative)
  T-cell proliferative response: − (−, Negative (SI < 2.0))
[3]
  Anti-peptide antibody response: −
[3]; chimpanzee 40, control normal
  Anti-peptide antibody response: −
[3]; chimpanzee 73, control normal
  Anti-peptide antibody response: −
[4]
  number of HIV+ individuals with positive antibody titers (<1:1280): one
[4]; HIV-positive patient MSf
  Anti-peptide antibody response: −
[4]; HIV-positive patient MSm
  Anti-peptide antibody response: −
[4]; HIV-positive patient eight
  Anti-peptide antibody response: −
[4]; HIV-positive patient eleven
  Anti-peptide antibody response: −
[4]; HIV-positive patient fifteen
  Anti-peptide antibody response: −
[4]; HIV-positive patient five
  Anti-peptide antibody response: −
[4]; HIV-positive patient four
  Anti-peptide antibody response: −
[4]; HIV-positive patient fourteen
  Anti-peptide antibody response: −
[4]; HIV-positive patient nine
  Anti-peptide antibody response: +
[4]; HIV-positive patient one
  Anti-peptide antibody response: −
[4]; HIV-positive patient seven
  Anti-peptide antibody response: −
[4]; HIV-positive patient six
  Anti-peptide antibody response: −
[4]; HIV-positive patient ten
  Anti-peptide antibody response: −
[4]; HIV-positive patient thirteen
  Anti-peptide antibody response: −
[4]; HIV-positive patient three
  Anti-peptide antibody response: −
[4]; HIV-positive patient twelve
  Anti-peptide antibody response: −
[4]; HIV-positive patient two
  Anti-peptide antibody response: −
[4]; Normal-1 (HIV-seronegative)
  Anti-peptide antibody response: −
[4]; Normal-2 (HIV-seronegative)
  Anti-peptide antibody response: −

## STRTPEDSNSLGT [c-mos peptide, reference compound]
[1]; chimpanzee 40, control normal
  T-cell proliferative response: − (−, Negative (SI < 2.0))
[1]; chimpanzee 62, HIV-infected
  T-cell proliferative response: − (−, Negative (SI < 2.0))
[1]; chimpanzee 69, HIV-infected
  T-cell proliferative response: − (−, Negative (SI < 2.0))
[1]; chimpanzee 73, control normal
  T-cell proliferative response: − (−, Negative (SI < 2.0))
[1]; chimpanzee 80, HIV-infected
  T-cell proliferative response: − (−, Negative (SI < 2.0))
[1]; chimpanzee 99, HIV-infected
  T-cell proliferative response: − (−, Negative (SI < 2.0))
[1]; chimpanzee 100, HIV-infected
  T-cell proliferative response: − (−, Negative (SI < 2.0))
[1]; chimpanzee 139, HIV-infected
  T-cell proliferative response: − (−, Negative (SI < 2.0))
[1]; chimpanzee 175
  SI, background level of proliferation: 2.7
[1]; chimpanzee 175, HIV-infected
  T-cell proliferative response: + (+, Positive (Stimulation Index [SI] > 2.0))
[1]; chimpanzee 247, HIV-infected
  T-cell proliferative response: − (−, Negative (SI < 2.0))
[1]; chimpanzee 310, HIV-infected
  T-cell proliferative response: − (−, Negative (SI < 2.0))
[2]
  number of HIV+ individuals with positive proliferative responses: None
[2]; listed as control peptide
  number of HIV+ individuals with positive proliferative responses: none
[2]; HIV-positive patient MSf
  T-cell proliferative response: − (−, Negative (SI < 2.0))
[2]; HIV-positive patient MSm
  T-cell proliferative response: − (−, Negative (SI < 2.0))
[2]; HIV-positive patient eight
  T-cell proliferative response: − (−, Negative (SI < 2.0))
[2]; HIV-positive patient eleven
  T-cell proliferative response: − (−, Negative (SI < 2.0))
[2]; HIV-positive patient fifteen
  T-cell proliferative response: − (−, Negative (SI < 2.0))
[2]; HIV-positive patient five
  T-cell proliferative response: − (−, Negative (SI < 2.0))
[2]; HIV-positive patient four
  T-cell proliferative response: − (−, Negative (SI < 2.0))
[2]; HIV-positive patient fourteen
  T-cell proliferative response: − (−, Negative (SI < 2.0))
[2]; HIV-positive patient nine
  T-cell proliferative response: − (−, Negative (SI < 2.0))
[2]; HIV-positive patient one
  T-cell proliferative response: − (−, Negative (SI < 2.0))
[2]; HIV-positive patient seven
  T-cell proliferative response: − (−, Negative (SI < 2.0))
[2]; HIV-positive patient six
  T-cell proliferative response: − (−, Negative (SI < 2.0))
[2]; HIV-positive patient ten
  T-cell proliferative response: − (−, Negative (SI < 2.0))
[2]; HIV-positive patient thirteen
  T-cell proliferative response: − (−, Negative (SI < 2.0))
[2]; HIV-positive patient three
  T-cell proliferative response: − (−, Negative (SI < 2.0))
[2]; HIV-positive patient twelve
  T-cell proliferative response: − (−, Negative (SI < 2.0))
[2]; HIV-positive patient two
  T-cell proliferative response: − (−, Negative (SI < 2.0))
[2]; Normal-1 (HIV-seronegative)
  T-cell proliferative response: − (−, Negative (SI < 2.0))
[2]; Normal-2 (HIV-seronegative)
  T-cell proliferative response: − (−, Negative (SI < 2.0))
[3]
  Anti-peptide antibody response: −
[3]; chimpanzee 40, control normal
  Anti-peptide antibody response: −
[3]; chimpanzee 73, control normal
  Anti-peptide antibody response: −
[4]; HIV-positive patient MSf
  Anti-peptide antibody response: −
[4]; HIV-positive patient MSm
  Anti-peptide antibody response: −
[4]; HIV-positive patient eight
  Anti-peptide antibody response: −
[4]; HIV-positive patient eleven
  Anti-peptide antibody response: −
[4]; HIV-positive patient fifteen
  Anti-peptide antibody response: −
[4]; HIV-positive patient five
  Anti-peptide antibody response: −
[4]; HIV-positive patient four
  Anti-peptide antibody response: −
[4]; HIV-positive patient fourteen
  Anti-peptide antibody response: −
[4]; HIV-positive patient nine
  Anti-peptide antibody response: −
[4]; HIV-positive patient one
  Anti-peptide antibody response: −
[4]; HIV-positive patient seven
  Anti-peptide antibody response: −
[4]; HIV-positive patient six
  Anti-peptide antibody response: −
[4]; HIV-positive patient ten
  Anti-peptide antibody response: −
[4]; HIV-positive patient thirteen
  Anti-peptide antibody response: −
[4]; HIV-positive patient three
  Anti-peptide antibody response: −
[4]; HIV-positive patient twelve
  Anti-peptide antibody response: −
[4]; HIV-positive patient two
  Anti-peptide antibody response: −
[4]; Normal-1 (HIV-seronegative)
  Anti-peptide antibody response: −
[4]; Normal-2 (HIV-seronegative)
  Anti-peptide antibody response: −
